This assay has as its target T1, human GluR4B receptor (Homo sapiens, UniProt P48058).
T1 construct: expressed in transfected cells
In words: potentiation of agonist-induced excitability of human GluR4B receptor expressed in HEK 293 cells. It is filed as cell-based. The text has this:
The ability of compounds of formula I or formula XVII to potentiate glutamate receptor-mediated response may be determined using fluorescent calcium indicator dyes (Molecular Probes, Eugene, Oreg., Fluo-3) and by measuring glutamate-evoked […] of calcium into GluR4 transfected HEK293 cells, as described in more detail below.
In one test, 96 well plates containing confluent monolayers of HEK cells stably expressing human GluR4B (obtained as described in European Patent Application Publication Number EP-A1-583917) are prepared. The tissue culture medium in the wells is then discarded, and the wells are each washed once with 200 μl of buffer (glucose, 10 mM, sodium chloride, 138 mM, magnesium chloride, 1 mM, potassium chloride, 5 mM, calcium chloride, 5 mM, N-[2-hydroxyethyl]piperazine-N-[2-ethanesulfonic acid], 10 mM, to pH 7.1 to 7.3). […]
Each test is then performed as follows. […] A second fluorescent reading is taken after 5 minutes incubation. 15 μl of 400 μM glutamate solution is then added to each well (final glutamate concentration 100 μM), and a third reading is taken. The activities of test compounds and cyclothiazide solutions are determined by subtracting the second from the third reading (fluorescence due to addition of glutamate in the presence or absence of test compound or cyclothiazide) and are expressed relative to enhance fluorescence produced by 100 μM cyclothiazide.

Here are results for one compound from US6362230B1, “Sulphonamide derivatives” (Eli Lilly and Company, priority 1998, dated 2002).

T1 sequence (P48058 21-902): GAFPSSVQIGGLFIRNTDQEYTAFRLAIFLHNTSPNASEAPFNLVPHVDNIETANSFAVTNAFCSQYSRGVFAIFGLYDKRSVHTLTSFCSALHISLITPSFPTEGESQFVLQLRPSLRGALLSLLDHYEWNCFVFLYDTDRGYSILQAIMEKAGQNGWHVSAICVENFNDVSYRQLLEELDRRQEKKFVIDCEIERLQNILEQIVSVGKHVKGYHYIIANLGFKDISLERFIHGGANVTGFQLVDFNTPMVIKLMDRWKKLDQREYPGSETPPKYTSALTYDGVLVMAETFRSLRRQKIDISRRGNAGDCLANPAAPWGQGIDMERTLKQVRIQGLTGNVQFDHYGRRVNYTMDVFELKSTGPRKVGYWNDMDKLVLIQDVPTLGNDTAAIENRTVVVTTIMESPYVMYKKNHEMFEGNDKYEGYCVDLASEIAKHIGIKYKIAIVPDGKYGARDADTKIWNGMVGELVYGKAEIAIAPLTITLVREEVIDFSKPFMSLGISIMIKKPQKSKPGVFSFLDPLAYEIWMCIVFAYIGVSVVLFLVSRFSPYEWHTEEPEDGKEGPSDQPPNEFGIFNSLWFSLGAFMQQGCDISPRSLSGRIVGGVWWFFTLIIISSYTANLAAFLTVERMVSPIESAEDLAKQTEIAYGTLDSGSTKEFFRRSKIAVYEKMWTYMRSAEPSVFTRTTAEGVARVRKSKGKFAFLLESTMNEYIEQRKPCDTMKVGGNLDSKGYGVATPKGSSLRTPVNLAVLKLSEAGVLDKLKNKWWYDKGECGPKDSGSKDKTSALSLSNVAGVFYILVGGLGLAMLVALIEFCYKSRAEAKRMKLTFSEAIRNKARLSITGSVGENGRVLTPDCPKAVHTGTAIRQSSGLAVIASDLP

As to `NS(=O)(=O)c1cc2c(cc1Cl)NC(C1CC3C=CC1C3)NS2(=O)=O` (stereo not shown) [cyclothiazide], the “potentiation of agonist-induced excitability of human GluR4B receptor” value is on record as “potentiate agonist-induced excitability”.
